# Data taken from patent EP4168403B1 (priority 2020, dated 2021).
# Values joined by “and” are separate entries in the source; they are usually repeats but may differ in a detail not shown here. Identical values can stand only once. “Also recorded” adds a separate entry of the source.
# Key:
# [1] = Prediction of blood-brain barrier penetration (PAMPA); format: in vitro ADME; conditions: for CNS: PAMPA prediction of ability to cross the blood-brain barrier
# Description: To predict passive blood-brain penetration of novel compounds modification of the parallel artificial membrane permeation (PAMPA) assay has been used based on reported protocol^38, 39. The filter membrane of the donor plate was coated with PBL (Polar Brain Lipid, Avanti, USA) in dodecane (4 µl of 20 mg/ml PBL in dodecane) and the acceptor well was filled with 300 µl of PBS pH 7.4 buffer (VD). Tested compounds were dissolved first in DMSO (0.5% (V/V) final) and that diluted with PBS pH 7.4 to reach the final concentration 50 µM in the donor well. 300 µl of the donor solution was added to the donor wells (VA) and the donor filter plate was carefully put on the acceptor plate so that coated membrane was "in touch" with both donor solution and acceptor buffer. Test compound diffused from the donor well through the lipid membrane (Area=0.28cm^2) to the acceptor well. The concentration of the drug in both donor and the acceptor wells was assessed after 3, 4, 5 and 6 hours of incubation in quadruplicate using the UV plate reader Synergy HT (Biotek, USA) at the maximum absorption wavelength and the standard curve for each compound. […]
# [2] = target: T1, Human red-blood cell acetylcholinesterase (hAChE; EC 3.1.1.7) (Homo sapiens, UniProt P22303); test: biochemical; conditions: pH 7.4, 37 °C, mean ± SEM, read-out: AChE (IC50 µM)
# T1 construct: Human red-blood cell acetylcholinesterase; purchased Sigma-Aldrich (Prague, Czech Republic); host or cells: human red blood cells
# T1 sequence (P22303 32-617 isoform P22303-2 limits assumed): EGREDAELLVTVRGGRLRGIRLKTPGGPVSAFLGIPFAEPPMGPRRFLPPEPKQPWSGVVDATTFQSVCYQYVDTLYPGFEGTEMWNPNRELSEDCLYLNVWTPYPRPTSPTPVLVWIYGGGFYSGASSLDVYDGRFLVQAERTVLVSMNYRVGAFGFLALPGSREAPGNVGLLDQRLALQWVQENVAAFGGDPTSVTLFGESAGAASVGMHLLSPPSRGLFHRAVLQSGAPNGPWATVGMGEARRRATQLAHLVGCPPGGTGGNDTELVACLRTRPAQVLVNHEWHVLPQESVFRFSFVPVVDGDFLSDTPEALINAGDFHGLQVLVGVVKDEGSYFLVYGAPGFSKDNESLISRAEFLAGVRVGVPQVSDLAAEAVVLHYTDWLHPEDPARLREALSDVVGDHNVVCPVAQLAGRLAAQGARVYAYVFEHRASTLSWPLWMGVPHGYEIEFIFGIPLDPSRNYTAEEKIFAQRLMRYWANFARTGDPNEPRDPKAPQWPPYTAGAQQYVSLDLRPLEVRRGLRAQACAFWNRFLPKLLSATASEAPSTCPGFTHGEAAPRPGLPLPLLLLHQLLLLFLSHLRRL
# Description: The AChE and BuChE inhibitory activity of the tested compounds was determined using a modified Ellman's method^31, 32.Human red-blood cell acetylcholinesterase (hAChE; EC 3.1.1.7), and human recombinant butyrylcholinesterase (hBuChE; EC 3.1.1.8), 5,5'-dithiobis(2-nitrobenzoic acid) (Ellman's reagent, DTNB), phosphate buffer (PB, pH 7.4), acetylthiocholine (ATC), and butyrylthiocholine (BTC), were purchased from Sigma-Aldrich (Prague, Czech Republic). Nunc polystyrene 96-well microplates with flat-bottom shape (ThermoFisher Scientific, USA) were used for the measurement and all the assay were carried out in 0.1 M KH2PO4/K2HPO4 buffer, pH 7.4. Enzyme solution was prepared at activity 2.0 units/mL in 2 mL aliquots. The assay mixture (100 µL) consisted of 40 µL of 0.1 M phosphate buffer (pH 7.4), 20 µL of 0.01 M DTNB, 10 µL of enzyme, and 20 µL of 0.01 M substrate (ATC iodide solution). Tested compounds were dissolved first in methanol (BIGI 23 in DMSO) and then further diluted by assay buffer to the final concentration. […] Enzyme with the inhibitor was preincubated for 5 min in the assay mixture and then the reaction was started by addition of 20 µL of substrate (ATC for AChE, BTC for BuChE). […] Each concentration was assayed in triplicate. The obtained data were used to compute the percentage inhibition (I; Equation 1): I = 1−(ΔAi)/(ΔA0) [%] [formula] ΔAi indicates the absorbance change provided by cholinesterase exposed to AChE inhibitors and ΔA0 indicates absorbance change caused by intact cholinesterase (phosphate buffer was used instead of AChE inhibitor solution).
# human AChE = target: T2, human AChE (Homo sapiens, UniProt P22303); test: Kinetic study of inhibition of AChE hydrolysis (Lineweaver-Burk, nonlinear regression); format: biochemical; conditions: for Ki: substrate acetylthiocholine; for type of inhibition: sum-of-squares F-test, p<0.05
# T2 construct: purchased Sigma-Aldrich (Prague, Czech Republic); host or cells: human red blood cells
# T2 sequence (P22303 32-617 isoform P22303-2 limits assumed): as above
# Description: To obtain insight into the interactions of BIGI-3h and BIGI-3e with human AChE, a kinetic study was conducted. Substrate concentration - enzyme velocity curves were recorded in the presence of different concentrations of the tested compounds. […] The type of inhibition and corresponding inhibition constants (Ki and Ki') were determined by the nonlinear regression analysis of data. Results for each type model of inhibition (competitive, non-competitive, uncompetitive and mixed) were compared with sum-of-squares F-test. […] BIGI-3h and BIGI-3e bind to both free AChE and AChE-substrate complex, affecting the binding of substrate in the active site of enzyme, interacting with its allosteric peripheral anionic site. Interaction with this site causes conformational changes of the enzyme resulting also in changes of its active site. […]. Measured values are consistent with the IC50 values for AChE. It appears that both tested compounds tend to bind free AChE more than enzyme-substrate complex.
# Tau(306-336) peptide = Tau(306-336) peptide (Homo sapiens, UniProt P10636); conditions: Tau(306-336) 50 µM, inhibitor 50 µM (1:1 ratio); mean ± SEM; 50 µM
# Sequence of Tau(306-336) peptide (P10636 623-653 limits assumed): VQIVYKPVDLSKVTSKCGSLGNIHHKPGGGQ
# Description: Subsequently, the sample was aliquoted dried and stored at -20 °C.
# Fluorescence data were recorded every 10 min overnight with 1 min shaking at 800 rpm prior to each reading. Each inhibitor was assayed in triplicates in at least two independent experiments. […] Inhibition % are expressed as the mean ± SEM. […] Values were averaged and the presented values are expressed as the mean ± SEM.
# Fluorescence data were recorded every 10 min overnight with 1 min shaking at 800 rpm prior to each reading.
# Human recombinant GSK-3β = target: T3, Human recombinant GSK-3β (Homo sapiens, UniProt P49841); test: GSK-3β inhibition in vitro assay (Kinase-Glo luminescence); format: biochemical; conditions: ATP 1 µM, GSM substrate 25 µM; mean ± SEM
# T3 construct: purchased Millipore (Millipore Iberica S.A.U.)
# T3 sequence (P49841 whole entry): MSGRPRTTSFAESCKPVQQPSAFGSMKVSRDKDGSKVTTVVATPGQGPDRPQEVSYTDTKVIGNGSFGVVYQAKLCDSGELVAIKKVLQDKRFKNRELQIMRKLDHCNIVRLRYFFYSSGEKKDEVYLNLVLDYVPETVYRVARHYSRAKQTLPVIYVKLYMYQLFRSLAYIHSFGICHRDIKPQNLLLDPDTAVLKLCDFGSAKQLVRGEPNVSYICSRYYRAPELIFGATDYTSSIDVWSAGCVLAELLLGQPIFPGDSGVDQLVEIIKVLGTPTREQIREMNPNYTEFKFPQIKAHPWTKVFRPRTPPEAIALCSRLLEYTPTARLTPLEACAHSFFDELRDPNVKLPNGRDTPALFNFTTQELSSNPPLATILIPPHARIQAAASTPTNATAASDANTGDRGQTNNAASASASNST
# Description: Human recombinant GSK-3β, prephosphorylated polypeptide substrate and white 96-well plates were purchased from Millipore (Millipore Iberica S.A.U.). Kinase-Glo Luminescent Kinase Assay was obtained from Promega (Promega Biotech Iberica, SL). Adenosinetriphosphate (ATP) and all other reagents were from Sigma-Aldrich. Assay buffer contained 50 mM 4-(2-hydroxyethyl)-1- piperazineethanesulfonic acid (HEPES) (pH 7.5), 1 mM ethylenediaminetetraacetic acid (EDTA), 1 mM ethylene glycol tetraacetic acid (EGTA), and 15 mM magnesium acetate. The in solution experiments for GSK-3β inhibition analysis were performed by following the method developed by Baki et al^42. In a typical assay, 10 µL of test compound (dissolved in DMSO at 1 mM concentration and diluted in advance in assay buffer to the desired concentration) and 10 µL (20 ng) of enzyme were added to each well in presence of 20 µL of assay buffer containing GSM substrate and ATP in order to reach a 25 µM and 1 µM final concentration respectively. […] After a 30 min incubation time at 30 °C, the enzymatic reaction was stopped by adding 40 µL of Kinase-Glo reagent. Glow-type luminescence was recorded after 10 min using a VictorX 3 PerkinElmer plate reader. […]. The linear regression parameters were determined and the IC50 extrapolated (GraphPad Prism 4.0, GraphPad Software Inc.).
# [3] = binding to AChE-substrate complex
SMILES,CNS [1],IC50 [2] [µM],Ki (human AChE; [3]) [nM],Ki (human AChE; binding to free AChE) [nM],type of inhibition (human AChE),"Papp at 50 µM ([1]; PAMPA, PBS pH 7.4, 50 µM in donor well, read-out: Pe ± SEM) [×10⁻⁶ cm/s]",Inhibition of T (306-336) peptide self - aggregation (%) (Tau(306-336) peptide),IC50 (Human recombinant GSK-3β) [µM]
"CCOC(=O)C1=C(C)N(CCC2CCN(Cc3ccccc3)CC2)C(=O)NC1c1coc2ccc(Br)cc2c1=O (stereo not drawn) [BIGI-3e, ethyl 1-(2-(1-benzylpiperidin-4-yl)ethyl)-4-(6-bromo-4-oxo-4H-chromen-3-yl)-6-methyl-2-oxo-1,2,3,4-tetrahydropyrimidine-5-carboxylate]",CNS (+/-),0.06,89.5 ± 12.5,51 ± 12.7,mixed non-competitive,–,–,–
"CCOC(=O)C1=C(C)N(CCCC2CCN(Cc3ccccc3)CC2)C(=O)NC1c1coc2cc(CC)ccc2c1=O (stereo not drawn) [BIGI-3k, ethyl 1-(3-(1-benzylpiperidin-4-yl)propyl)-4-(7-ethyl-4-oxo-4H-chromen-3-yl)-6-methyl-2-oxo-1,2,3,4-tetrahydropyrimidine-5-carboxylate]",CNS (-),0.5 ± 0.02,–,–,–,–,–,–
"CCOC(=O)C1=C(C)N(CCC2CCN(Cc3ccccc3)CC2)C(=O)NC1c1coc2c(Cl)cc(Cl)cc2c1=O (racemic) [BIGI-3h, ethyl 1-(2-(1-benzylpiperidin-4-yl)ethyl)-4-(6,8-dichloro-4-oxo-4H-chromen-3-yl)-6-methyl-2-oxo-1,2,3,4-tetrahydropyrimidine-5-carboxylate]",best ability to cross the BBB; also recorded: CNS (+),0.06,77.6 ± 16.4,21.5 ± 5.19,mixed non-competitive,4 ± 0.3,73.7% and 73.7 ± 5.4%,29.1
